# Experimental data published in patent publication US10968214B2, “KRas G12C inhibitors” (Eli Lilly and Company, priority 2018, dated 2021).
# “And” between values parts separate entries of the source, which are not always exact repeats. Identical values can stand only once. Like-named read-outs stand apart in the source and are kept apart here.
# Columns and labels:
# KRas G12C = KRas G12C (Homo sapiens, UniProt P01116, G12C); assay: KRas G12C Probe Occupancy TR-FRET Assay; type: binding; conditions: read-out: IC50
# Description: Inhibitors are tested in dose response format from 10 mM stocks in 100% DMSO. The Labycyte Echo® 555 is used to dilute and transfer 100 nL per well containing a 10 point, 2.8-fold serial dilution to an assay plate. […] The signal ratio (em at 665/em at 615) is converted to percent inhibition using the following equation: % Inhibition=100−[(Test Compound Signal−Median Minimum Signal)/(Median Maximum Signal−Median Minimum Signal)×100].
# [1] = biological target: T1, active KRas in H358 xenograft tumors (Homo sapiens, UniProt P01116, G12C); assay: In vivo target inhibition/PD, H358 xenograft, active KRas; parameters: species or system mouse; conditions: for inhibition at 10 mg/kg: 10 mg/kg single dose; for inhibition at 30 mg/kg: 30 mg/kg single dose
# T1 construct: from tissue; host or cells: H358 xenograft tumours from nude mice
# Description: (§1) To evaluate in vivo target inhibition and anti-tumor efficacy of a compound, Human lung cancer cells, H358 or H2122 are implanted into nude mice xenograft tumor models. Either H358 or H2122 cells (10×10^6 in a 1:1 Matrigel® mix, 0.2 mL total volume) are implanted by subcutaneous injection in hind leg of nude female mice (Harlan Laboratories). A total of 5 mice each group are used for efficacy study, and a total of 3-4 mice each group are used for target engagement and PD study. Treatment is initiated with oral administration (gavage) of a test compound or vehicle (20% Captisol®, 25 mM phosphate, pH 2.0 in 0.2 mL volume when the tumor size reaches approximately […]. Tumor growth and body weight are monitored over time to evaluate efficacy and signs of toxicity. Bidimensional measurements of tumors are performed twice a week and tumor volumes are calculated based on mid-axis length and mid-axis width. Tumor volume data are transformed to a log scale to equalize variance across time and treatment groups. The log volume data are analyzed with a two-way repeated measures analysis of variance by time and treatment using the mixed procedures in SAS software (version 8.2). The correlation model for the repeated measures is spatial power. Treated groups are compared to the control group at each time point. The mixed procedure is also used separately for each treatment group to calculate adjusted means and standard errors at each time point. Both analyses account for the autocorrelation within each animal. The adjusted means and standard errors are plotted for each treatment group versus time.
# (§2) For in vivo target inhibition and PD analysis, tumors are ground by mortar and pestle on dry ice and tumor fragments are added to 800 μL of lysis buffer containing 1% Triton X100, 25 mM Tris pH 7.5, 150 mM NaCl, 1 mM EDTA, and 1 mM EGTA with Halt protease and phosphatase inhibitor cocktail (Thermo Scientific, cat. no. 1861281) in lysing matrix D tubes (MP Biomedical®, cat. no. 6913-500) with one additional large bead (MP Biomedical® ¼″ ceramic sphere bead cat. no. 6540-412) per tube. Tumor fragments are homogenized in a Thermo Bio101® fast prep (FP120) at setting 4 for […] while cold for a total of 2 times. Lysates are spun at 14,000 rpm for 10 min at 4° C. to clarify. Protein estimation is done on the lysate supernatant using a BioRad Dc® protein assay and lysates are diluted in complete lysis/binding buffer from the Ras GTPase Chemi ELISA Kit® (Active Motif, cat. no. 52097). The active KRas ELISA was performed as follows: Glutathione-coated ELISA wells were incubated with diluted RAF1-GST in complete lysis/binding buffer for 1 hr at 4° C. with gentle agitation. Wells are washed 3 times with wash buffer and 100 μg of lysates are added to each well and incubated at RT for 1 hr with mild agitation. The wells are washed an additional 3 times, then primary antibody, diluted in antibody binding buffer, is added to each well. The plates are incubated for 1 hr. The wells are washed 3 more times before adding HRP-conjugated secondary antibody, diluted in antibody binding buffer, to each well. The plates are incubated at RT for 1 hr. ELISA wells are washed 4 times, chemiluminescent reagents is added and then luminescence is read. For pERK Meso Scale Discovery ELISA, 25 μg of protein containing 0.1% SDS is used; for pMEK Meso Scale Discovery ELISA, 50 μg of protein without SDS is used. Meso Scale Discovery Whole Cell Lysate Kits for pERK and pMEK are provided by Meso Scale Discovery.
# The tumor samples are collected 4 hr post a single dose. The tumor lysates are prepared and the inhibition of pERK, pMEK, and active KRas is measured as described above.
# After a single dose, the tumor samples are harvested at 2, 4, 8, 12 and 24 hr post doing. The tumor lysates are prepared and the inhibition of pERK, pMEK, and active KRas is measured as described above.
# [2] = system: pERK in H2122 xenograft tumors; assay: In vivo target inhibition/PD, H2122 xenograft, pERK; conditions: Mus musculus, NCI-H2122; for inhibition at 10 mg/kg: 10 mg/kg single dose
# Description: as §1, §2
# After a single dose, the tumor samples are harvested at different time points. The tumor lysates are prepared as described above. The inhibition of pERK, pMEK, and active KRas is measured as described above.
# H1373 xenograft = assay: Anti-tumor growth activity, H1373 lung xenograft; type: in vivo; conditions: 28 Day, negative = regression
# EL3187 (PDX) = assay: Anti-tumor growth activity, EL3187 lung PDX; type: in vivo; conditions: for Tumor Growth Inhibition (%) or Regression (−%): EL3187 (PDX) Lung, 28 Day, negative = regression
# KYSE-410 xenograft = assay: Anti-tumor growth activity, KYSE-410 esophageal xenograft; type: in vivo; conditions: 28 Day, negative = regression
# [3] = NCI-H358, mouse, 4 hr post dose, read-out: % Inhibition Active KRas
# [4] = NCI-H358, mouse, time course, 2 hr, read-out: % Inhibition Active KRas
# [5] = NCI-H358, mouse, time course, 4 hr, read-out: % Inhibition Active KRas
# [6] = NCI-H358, mouse, time course, 8 hr, read-out: % Inhibition Active KRas
# [7] = NCI-H358, mouse, time course, 12 hr, read-out: % Inhibition Active KRas
# [8] = NCI-H358, mouse, time course, 24 hr, read-out: % Inhibition Active KRas
# T1 sequence (P01116 1-188 isoform P01116-2 G12C): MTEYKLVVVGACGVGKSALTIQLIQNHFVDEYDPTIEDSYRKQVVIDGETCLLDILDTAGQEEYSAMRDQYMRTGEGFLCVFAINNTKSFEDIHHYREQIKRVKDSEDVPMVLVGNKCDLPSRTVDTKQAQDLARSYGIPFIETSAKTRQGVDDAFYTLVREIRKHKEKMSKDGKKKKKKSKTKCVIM
# Sequence of KRas G12C (P01116 1-188 isoform P01116-2 G12C): as above
smiles,measurement,setting,value
"C=CC(=O)N1CCN(c2ncnc3c(F)c(-c4ccc(F)c5sc(N)nc45)c(Cl)cc23)CC1 [Example 1, 1-{4-[7-(2-Amino-7-fluoro-1,3-benzothiazol-4-yl)-6-chloro-8-fluoroquinazolin-4-yl]piperazin-1-yl}prop-2-en-1-one]",IC50,KRas G12C; 5 min incubation,25 nM
same,IC50,KRas G12C; 60 min incubation,24 nM
same,inhibition at 1 mg/kg,"[1]; NCI-H358, mouse, 1 mg/kg single dose, 4 hr post dose",-1.9%
same,inhibition at 3 mg/kg,"[1]; NCI-H358, mouse, 3 mg/kg single dose, 4 hr post dose",-2.9%
same,inhibition at 10 mg/kg,[1]; [3],40.9%
same,inhibition at 10 mg/kg,"[1]; NCI-H358, mouse, from 2-24 hr, read-out: active Kras inhibition",21 to 61%
same,inhibition at 30 mg/kg,[1]; [3],83.2%
same,inhibition at 30 mg/kg,"[1]; NCI-H358, mouse, from 2-24 hr, read-out: active KRas inhibition",29 to 70%
same,inhibition at 100 mg/kg,"[1]; NCI-H358, mouse, 100 mg/kg single dose, 4 hr post dose",87.4%
same,inhibition at 10 mg/kg,[1]; [4],26.1%
same,inhibition at 10 mg/kg,[1]; [5],32.9%
same,inhibition at 10 mg/kg,[1]; [6],30%
same,inhibition at 10 mg/kg,[1]; [7],61.1%
same,inhibition at 10 mg/kg,[1]; [8],21.5%
same,inhibition at 30 mg/kg,[1]; [4],70.4%
same,inhibition at 30 mg/kg,[1]; [5],65%
same,inhibition at 30 mg/kg,[1]; [6],66.5%
same,inhibition at 30 mg/kg,[1]; [7],28.7%
same,inhibition at 30 mg/kg,[1]; [8],37.7%
same,EC50,"[1]; plasma exposure by mass spectrum, read-out: plasma concentration to achieve 50% target inhibition (TEC50), active KRas",574 nM
same,"dose to achieve 50% target inhibition (TED50), active KRas","[1]; single dose, 4 hr",11.2 mg/kg
same,inhibition at 10 mg/kg,"[2]; H2122 xenograft, 2 hr, read-out: % Inhibition pERK",46.8%
same,inhibition at 10 mg/kg,"[2]; H2122 xenograft, 4 hr, read-out: % Inhibition pERK",47%
same,inhibition at 10 mg/kg,"[2]; H2122 xenograft, 8 hr, read-out: % Inhibition pERK",34.5%
same,inhibition at 10 mg/kg,"[2]; H2122 xenograft, 12 hr, read-out: % Inhibition pERK",7.2%
same,inhibition at 10 mg/kg,"[2]; H2122 xenograft, 24 hr, read-out: % Inhibition pERK",-2.8%
same,inhibition at 10 mg/kg,"[2]; H2122 xenograft, from 2-12 hr, read-out: pERK inhibition",7 to 47%
same,inhibition at 30 mg/kg,"[2]; H2122 xenograft, 30 mg/kg single dose, 2 hr, read-out: % Inhibition pERK",75.6%
same,inhibition at 30 mg/kg,"[2]; H2122 xenograft, 30 mg/kg single dose, 4 hr, read-out: % Inhibition pERK",75.3%
same,inhibition at 30 mg/kg,"[2]; H2122 xenograft, 30 mg/kg single dose, 8 hr, read-out: % Inhibition pERK",67.4%
same,inhibition at 30 mg/kg,"[2]; H2122 xenograft, 30 mg/kg single dose, 12 hr, read-out: % Inhibition pERK",48.8%
same,inhibition at 30 mg/kg,"[2]; H2122 xenograft, 30 mg/kg single dose, 24 hr, read-out: % Inhibition pERK",20.4%
same,inhibition at 100 mg/kg,"[2]; H2122 xenograft, 100 mg/kg single dose, 4 hr",79.1%
same,inhibition at 30 mg/kg,[2]; read-out: pERK inhibition,49 to 76%
same,Tumor Growth Inhibition (%) or Regression (−%),H1373 xenograft; 15 mg/kg BID,−60%
same,Tumor Growth Inhibition (%) or Regression (−%),H1373 xenograft; 30 mg/kg BID,−71.6%
same,Tumor Growth Inhibition (%) or Regression (−%),H1373 xenograft; 30 mg/kg QD,−52.4%
same,Tumor Growth Inhibition (%) or Regression (−%),EL3187 (PDX); 5 mg/kg BID,−65%
same,Tumor Growth Inhibition (%) or Regression (−%),EL3187 (PDX); 5 mg/kg QD,94%
same,Tumor Growth Inhibition (%) or Regression (−%),EL3187 (PDX); 15 mg/kg BID,−80%
same,Tumor Growth Inhibition (%) or Regression (−%),EL3187 (PDX); 15 mg/kg QD,−75%
same,Tumor Growth Inhibition (%) or Regression (−%),"EL3187 (PDX); 30 mg/kg BID, 30 mg/kg",−100% and −92.5%
same,Tumor Growth Inhibition (%) or Regression (−%),EL3187 (PDX); 100 mg/kg BID,−100%
same,Tumor Growth Inhibition (%) or Regression (−%),EL3187 (PDX); 100 mg/kg QD,−100%
same,In Vivo Anti-Tumor Activities,"EL3187 (PDX); EL3187 Lung PDX, Example 1 5 mg/kg QDx28",94.8
same,Tumor Growth Inhibition (%) or Regression (−%),KYSE-410 xenograft; 15 mg/kg BID,21.2%
same,Tumor Growth Inhibition (%) or Regression (−%),KYSE-410 xenograft; 30 mg/kg BID,−9%
same,Tumor Growth Inhibition (%) or Regression (−%),KYSE-410 xenograft; 30 mg/kg QD,74.5%
